Experimental data reported in patent publication US20110046067A1, “COMPOSITIONS COMPRISING HUMAN EGFR-siRNA AND METHODS OF USE” (Intradigm Corporation, priority 2007, published 2011).
Entries after “also recorded” stand apart in the source; their conditions may differ.

Test system: hEGFR
Test: hEGFR dose titration in HT-29 cells (electroporation, hEGFR ELISA)
Format: cell-based, human
Settings: 0.01-10 ug siRNA per 2×10^6 cells/200 μl, 48 hours post transfection
Protocol: The selected hEGFR-siRNA, hEGFR-25-1 and hEGFR-25-2, were tested for their capability of inhibiting hEGFR expression in a dose-dependent manner. The HT-29 cells were transfected with the EGFR-siRNAs in a range of 0.01-10 ug siRNA per 2×10^6 cells/200 μl using an electroporation mediated transfection method. The concentration of EGFR protein in the transfected HT-29 cells was measured at 48 hours post transfection using a hEGFR ELISA kit (R&D Systems, Inc.). The concentration of hEGFR protein was normalized against total cellular protein and the percentage of hEGFR inhibition was normalized against cells treated with a mock process without siRNA.
Two siRNA candidates, hEGFR-25-1 and hEGFR-25-2, were further tested for activity in a dose titration experiment.

Row | Substance | dose-dependent inhibition of hEGFR production
1 | 5′-r(CACAGUGGAGCGAAUUCCUUUGGAA)-3′ (chain 2 UUCCAAAGGAAUUCGCUCCACUGUG; siRNA; RNA, backbone not given here) [hEGFR-25-1] | inhibited hEGFR expression in a dose-dependent manner; also recorded: dose-dependent inhibition
2 | 5′-r(CGCAAAGUGUGUAACGGAAUAGGUA)-3′ (chain 2 UACCUAUUCCGUUACACACUUUGCG; siRNA; RNA, backbone not given here) [hEGFR-25-2] | inhibited hEGFR expression in a dose-dependent manner; also recorded: dose-dependent inhibition
